In patent US11793849B2, “Method of Chinese herbal medicine extract used for treating multiple diseases caused by drug resistant bacteria infection” (priority 2016, dated 2023):
Where two headings read alike, the source gives them in different places.

Legend:
[1] = tested on: MDRPA; experiment: MIC determination, microdilution broth method;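 further: broth microdilution per NCCLS recommendations, testing Pithecellobium clypearia water or ethanol extracts against multidrug-resistant Pseudomonas aeruginosa, with MIC50 and MIC90 derived statistically from individual MICs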
[2] = tested on: ATCC27853; experiment: MIC determination, control strain; type: cell-based
Protocol: Determination methods of a Minimal Inhibitory Concentration (MIC) and a Minimum Bactericidal Concentration (MBC) of a test product: the MIC and the MBC of the Pithecellobium clypearia Benth water or ethanol extract to the MDRAB are determined by a microdilution broth method.

[3] = 20 MDRPAs, EA = 60% ethanol extract
[4] = 20 MDRPAs, EA = 95% ethanol extract
[5] = MDRPAs P1-P20, single use, EA=P. clypearia 10% ethanol extract
[6] = MDRPAs P1-P20, single use, EA=P. clypearia water extract
[7] = single use, 20 MDRPAs, section of the 10% ethanol extract
[8] = single use, 20 MDRPAs, section of the 60% ethanol extract
[9] = single use, 20 MDRPAs, section of the 95% ethanol extract

NCC[C@H](O)C(=O)N[C@@H]1C[C@H](N)[C@@H](O[C@H]2O[C@H](CN)[C@@H](O)[C@H](O)[C@H]2O)[C@H](O)[C@H]1O[C@H]1O[C@H](CO)[C@@H](O)[C@H](N)[C@H]1O [AMK, Amikacin]
1 to 256 µg/mL: MIC Range [1, 3] | MIC Range [1, 4] | MIC Range [1, 5] | MIC Range [1, 6]
1 µg/mL: MIC50 [1, 3] | MIC50 [1, 4] | MIC50 [1, 5] | MIC50 [1, 6] | MIC50 ([1]; Pseudomonas aeruginosa) | MIC ([1]; Pseudomonas aeruginosa, read-out: MIC (single use), strain P1, EA=P. clypearia 10% ethanol extract) | MIC ([1]; Pseudomonas aeruginosa, read-out: MIC (single use), strain P1, EA=P. clypearia water extract) | MIC ([1]; Pseudomonas aeruginosa, read-out: MIC (single use), strain P2, EA=P. clypearia 10% ethanol extract) | MIC ([1]; Pseudomonas aeruginosa, read-out: MIC (single use), strain P2, EA=P. clypearia water extract) | MIC ([1]; Pseudomonas aeruginosa, read-out: MIC (single use), strain P4, EA=P. clypearia 10% ethanol extract) | MIC ([1]; Pseudomonas aeruginosa, read-out: MIC (single use), strain P4, EA=P. clypearia water extract) | MIC ([1]; Pseudomonas aeruginosa, read-out: MIC (single use), strain P7, EA=P. clypearia 10% ethanol extract) | MIC ([1]; Pseudomonas aeruginosa, read-out: MIC (single use), strain P7, EA=P. clypearia water extract) | MIC ([1]; Pseudomonas aeruginosa, read-out: MIC (single use), strain P8, EA=P. clypearia 10% ethanol extract) | MIC ([1]; Pseudomonas aeruginosa, read-out: MIC (single use), strain P8, EA=P. clypearia water extract) | MIC ([1]; Pseudomonas aeruginosa, read-out: MIC (single use), strain P9, EA=P. clypearia 10% ethanol extract) | MIC ([1]; Pseudomonas aeruginosa, read-out: MIC (single use), strain P9, EA=P. clypearia water extract) | MIC ([1]; Pseudomonas aeruginosa, read-out: MIC (single use), strain P11, EA=P. clypearia 10% ethanol extract) | MIC ([1]; Pseudomonas aeruginosa, read-out: MIC (single use), strain P11, EA=P. clypearia water extract) | MIC ([1]; Pseudomonas aeruginosa, read-out: MIC (single use), strain P17, EA=P. clypearia 10% ethanol extract) | MIC ([1]; Pseudomonas aeruginosa, read-out: MIC (single use), strain P17, EA=P. clypearia water extract) | MIC ([1]; Pseudomonas aeruginosa, read-out: MIC (single use), strain P19, EA=P. clypearia 10% ethanol extract) | MIC ([1]; Pseudomonas aeruginosa, read-out: MIC (single use), strain P19, EA=P. clypearia water extract) | MIC50 [1, 7] | MIC50 [1, 8] | MIC50 [1, 9]
4 µg/mL: MIC ([1]; Pseudomonas aeruginosa, read-out: MIC (single use), strain P3, EA=P. clypearia 10% ethanol extract) | MIC ([1]; Pseudomonas aeruginosa, read-out: MIC (single use), strain P3, EA=P. clypearia water extract) | MIC ([1]; Pseudomonas aeruginosa, read-out: MIC (single use), strain P10, EA=P. clypearia 10% ethanol extract) | MIC ([1]; Pseudomonas aeruginosa, read-out: MIC (single use), strain P10, EA=P. clypearia water extract)
2 µg/mL: MIC ([1]; Pseudomonas aeruginosa, read-out: MIC (single use), strain P5, EA=P. clypearia 10% ethanol extract) | MIC ([1]; Pseudomonas aeruginosa, read-out: MIC (single use), strain P5, EA=P. clypearia water extract) | MIC ([1]; Pseudomonas aeruginosa, read-out: MIC (single use), strain P13, EA=P. clypearia 10% ethanol extract) | MIC ([1]; Pseudomonas aeruginosa, read-out: MIC (single use), strain P13, EA=P. clypearia water extract) | MIC ([1]; Pseudomonas aeruginosa, read-out: MIC (single use), strain P14, EA=P. clypearia 10% ethanol extract) | MIC ([1]; Pseudomonas aeruginosa, read-out: MIC (single use), strain P14, EA=P. clypearia water extract) | MIC ([1]; Pseudomonas aeruginosa, read-out: MIC (single use), strain P15, EA=P. clypearia 10% ethanol extract) | MIC ([1]; Pseudomonas aeruginosa, read-out: MIC (single use), strain P15, EA=P. clypearia water extract) | MIC ([1]; Pseudomonas aeruginosa, read-out: MIC (single use), strain P20, EA=P. clypearia 10% ethanol extract) | MIC ([1]; Pseudomonas aeruginosa, read-out: MIC (single use), strain P20, EA=P. clypearia water extract) | MIC ([2]; EA=P. clypearia 10% ethanol extract, read-out: MIC (single use)) | MIC ([2]; EA=P. clypearia water extract, read-out: MIC (single use)) | MIC ([2]; single use, EA = 60% ethanol extract, read-out: MIC) | MIC ([2]; single use, EA = 95% ethanol extract, read-out: MIC)
256 µg/mL: MIC ([1]; Pseudomonas aeruginosa, read-out: MIC (single use), strain P6, EA=P. clypearia 10% ethanol extract) | MIC ([1]; Pseudomonas aeruginosa, read-out: MIC (single use), strain P6, EA=P. clypearia water extract) | MIC ([1]; Pseudomonas aeruginosa, read-out: MIC (single use), strain P16, EA=P. clypearia 10% ethanol extract) | MIC ([1]; Pseudomonas aeruginosa, read-out: MIC (single use), strain P16, EA=P. clypearia water extract)
32 µg/mL: MIC90 [1, 3] | MIC90 [1, 4] | MIC90 [1, 5] | MIC90 [1, 6] | MIC90 ([1]; Pseudomonas aeruginosa) | MIC ([1]; Pseudomonas aeruginosa, read-out: MIC (single use), strain P12, EA=P. clypearia 10% ethanol extract) | MIC ([1]; Pseudomonas aeruginosa, read-out: MIC (single use), strain P12, EA=P. clypearia water extract) | MIC90 [1, 7] | MIC90 [1, 8] | MIC90 [1, 9]
16 µg/mL: MIC ([1]; Pseudomonas aeruginosa, read-out: MIC (single use), strain P18, EA=P. clypearia 10% ethanol extract) | MIC ([1]; Pseudomonas aeruginosa, read-out: MIC (single use), strain P18, EA=P. clypearia water extract)
